Data: patent EP0125508A1, “Method for stabilizing a detrusor muscle while increasing detrusor muscle strength” (United Pharmaceuticals, Inc., priority 1983, dated 1984)
Counter-ions that a name gives are not always drawn.

Assays:
[1] = tested on: Unstable Detrusor; experiment: Urodynamic studies, filling and voiding phase of the bladder (water cystometrogram), unstable detrusor; assay type: in vivo, women; details: for Compliance (compliance of the detrusor muscle) / P (maxflow): bladder pressure at maximum urine flow rate / P (opening): bladder pressure at the patient's initiating urination / P (voiding): bladder voiding pressure / Q (max) / R.U. / V (1st sense): bladder urine volume at the patient's first sensation to urinate / V (Urge): bladder urine volume at the patient's urge to urinate / V (max): maximum bladder urine volume: unstable detrusor
Description: (§1) Urodynamic studies were performed on 20 women having a mean age of 28 + 7 years. These studies incorporated water cystometrogram, UPP, and isometric tests. Control urodynamic testing without use of thiphenamil hydrochloride was undertaken in all subjects. The effects of a single dose of 400 mg and a single dose of 800 mg of thiphenamil hydrochloride given orally were compared with the control value for each subject. Specifically, the measurements taken included bladder capacity, residual volume, maximum detrusor voiding pressure, and isometric contractility during bladder filling and at bladder capacity. '
Figure 3 illustrates the voiding phase of the cystometrogram for a subject having an unstable detrusor muscle. Spontaneous detrusor contractions are shown to precipitate voiding at a bladder urine volume of about 210 ml. The onset of voiding is associated with involuntary contractions (series of detrusor pressure peaks between 0 and 50 seconds) that are suppressed by increased EMG activity.

[2] = tested on: Unstable Detrusor; experiment: Isometric test: maximum isometric pressure as a function of bladder volume, unstable detrusor; assay type: in vivo, women; details: for I (100): maximum isometric pressure: bladder urine volume 100 ml; for I (200): maximum isometric pressure: bladder urine volume 200 ml; for I (300): maximum isometric pressure: bladder urine volume 300 ml
Description: as §1

[3] = tested on: Stable Detrusor; experiment: Urodynamic studies, filling and voiding phase of the bladder (water cystometrogram), stable detrusor; assay type: in vivo, women; details: for Compliance (compliance of the detrusor muscle) / P (maxflow): bladder pressure at maximum urine flow rate / P (opening): bladder pressure at the patient's initiating urination / P (voiding): bladder voiding pressure / Q (max) / R.U. / V (1st sense): bladder urine volume at the patient's first sensation to urinate / V (Urge): bladder urine volume at the patient's urge to urinate / V (max): maximum bladder urine volume: stable detrusor
Description: as §1
(§2) Referring to Figure 1, data is shown taken from a subject having normal detrusor activity. The parameters measured include isometric detrusor pressure during bladder filling and while voiding under control conditions, EMG and . urine flow rate. Typical segments of a polygraph recording were obtained at a bladder volume of 100 ml (segment A), 200 ml (segment B) and the voiding at 30C ml (segment C). The parameters shown are detrusor pressure in cm H20, EMG (electromyogram) recording showing muscle electrical activity and urine flow rate.

[4] = tested on: Stable Detrusor; experiment: Isometric test: maximum isometric pressure as a function of bladder volume, stable detrusor; assay type: in vivo, women; details: for I (100): maximum bladder isometric pressure / I (200): maximum bladder isometric pressure / I (300): maximum bladder isometric pressure / I (400): maximum bladder isometric pressure / I (500): maximum bladder isometric pressure / V (1st sense): bladder urine volume at the patient's first sensation to urinate / V (Max): maximum bladder urine volume / V (Urge): bladder urine volume at the patient's urge to urinate: stable detrusor; for I (100): maximum bladder isometric pressure: bladder urine volume 100 ml; for I (200): maximum bladder isometric pressure: bladder urine volume 200 ml; for I (300): maximum bladder isometric pressure: bladder urine volume 300 ml; for I (400): maximum bladder isometric pressure: bladder urine volume 400 ml; for I (500): maximum bladder isometric pressure: bladder urine volume 500 ml; for V (1st sense): bladder urine volume at the patient's first sensation to urinate / V (Max): maximum bladder urine volume / V (Urge): bladder urine volume at the patient's urge to urinate: isometric test
Description: as §1, §2

[5] = Hydrolysis in water; assay type: physicochemical
[6] = one subject with unstable detrusor, 400 mg dose 30 minutes prior to recording
[7] = isometric test, single oral dose 400 mg

For `CCN(CC)CCSC(=O)C(c1ccccc1)c1ccccc1` [Thiphenamil Hydrochloride, thiphenamil hydrochloride], the “detrusor instability (range of fluctuations of the EMG tracing, Figure 4)” value [1, 6] was “nearly eliminated”, the “height of the detrusor pressure peaks before voiding, Figure 4 versus Figure 3” value [1, 6] was “general decrease in the height of those peaks” and the “pattern of detrusor instability (series of increasing detrusor pressure peaks leading up to voiding), Figure 4 versus Figure 3” value [1, 6] was “shifted significantly to the right”. The “voiding (Figure 4)” value [1, 6] was “voluntary and complete”, the “Compliance (compliance of the detrusor muscle)” value (shortened to “Compliance”) ([1]; single oral dose 400 mg) was 0.002±0.001 liters/cm H2O and the “P (maxflow): bladder pressure at maximum urine flow rate” value (shortened to “P (maxflow): bladder pressure”) ([1]; single oral dose 400 mg) was 44.0±4.4 (3) cm H2O. The “P (opening): bladder pressure at the patient's initiating urination” value (“P (opening): bladder pressure” for short) ([1]; single oral dose 400 mg) was 30±12 (4) cm H2O, the “P (voiding): bladder voiding pressure” value ([1]; single oral dose 400 mg) was 47±7 (4) cm H2O and the “Q (max)” value ([1]; single oral dose 400 mg) was 15±1.9. For the same compound, the R.U. ([1]; single oral dose 400 mg) was 140±85 (2), the “V (1st sense): bladder urine volume at the patient's first sensation to urinate” value (shortened to “V (1st sense): bladder urine volume”) ([1]; single oral dose 400 mg) was 270±99 (3) ml and the “V (Urge): bladder urine volume at the patient's urge to urinate” value (“V (Urge): bladder urine volume” for short) ([1]; single oral dose 400 mg) was 345 ± 191 mL. For the same compound, the “V (max): maximum bladder urine volume” value ([1]; single oral dose 400 mg) was 440±57 (2) ml, the “Compliance” value ([1]; single oral dose 800 mg) was 0.0027±0.0004 liters/cm H2O and the “P (maxflow): bladder pressure” value ([1]; single oral dose 800 mg) was 55.3±7.0 (3) cm H2O. For the same compound, the “P (opening): bladder pressure” value ([1]; single oral dose 800 mg) was 44±11.3 (2) cm H2O, the “P (voiding): bladder voiding pressure” value ([1]; single oral dose 800 mg) was 52.7±6.4 (3) cm H2O and the “Q (max)” value ([1]; single oral dose 800 mg) was 18.0±1.8 (3). For the same compound, the R.U. ([1]; single oral dose 800 mg) was 27.5±3.5 (3), the “V (1st sense): bladder urine volume” value ([1]; single oral dose 800 mg) was 275±35 (3) ml and the “V (Urge): bladder urine volume” value ([1]; single oral dose 800 mg) was 325±35 (2) ml. The “V (max): maximum bladder urine volume” value ([1]; single oral dose 800 mg) was 499±177 (3) ml, the “I (100): maximum isometric pressure” value ([2]; single oral dose 400 mg) was 73±39 (14) cm H2O and the “I (100): maximum isometric pressure” value ([2]; single oral dose 800 mg) was 78±53 cm H2O. For the same compound, the “I (200): maximum isometric pressure” value ([2]; single oral dose 400 mg) was 44±14 (3) cm H2O, the “I (200): maximum isometric pressure” value ([2]; single oral dose 800 mg) was 62±57 cm H2O and the “I (300): maximum isometric pressure” value ([2]; single oral dose 400 mg) was 75±5 (2) cm H2O. For the same compound, the “I (300): maximum isometric pressure” value ([2]; single oral dose 800 mg) was 96 (1) cm H2O, the “V (1st sense): bladder urine volume” value [2, 7] was 270+99 (4) ml and the “V (Urge): bladder urine volume” value [2, 7] was 355±53 (4) ml. The “V (Urge): bladder urine volume” value ([2]; isometric test, single oral dose 800 mg) was 423 ± 27.5 mL, the detrusor muscle contractility ([3]; decrease from control 41.3 + 15.3, dose not stated in the sentence (matches P (voiding), 400 mg, Table 1)) was 37.2 + 16.0 cm H20 and the “Compliance” value ([3]; single oral dose 400 mg) was 0.002±0.001 liters/cm H2O. For the same compound, the “P (maxflow): bladder pressure” value ([3]; single oral dose 400 mg) was 37.9±9.1 (19) cm H2O, the “P (opening): bladder pressure” value ([3]; single oral dose 400 mg) was 25.4±13.3 (19) cm H2O and the “P (voiding): bladder voiding pressure” value ([3]; single oral dose 400 mg) was 37.2±16 (20) cm H2O. For the same compound, the “Q (max)” value ([3]; single oral dose 400 mg) was 16.7±4.4 (21), the R.U. ([3]; single oral dose 400 mg) was 132.3±121.4 (18) and the “V (1st sense): bladder urine volume” value ([3]; single oral dose 400 mg) was 314±99 (19) ml. For the same compound, the “V (Urge): bladder urine volume” value ([3]; single oral dose 400 mg) was 551±195 (19) ml, the “V (max): maximum bladder urine volume” value ([3]; single oral dose 400 mg) was 581+155 (19) ml and the “Compliance” value ([3]; single oral dose 800 mg) was 0.0025±0.003 liters/cm H2O. The “P (maxflow): bladder pressure” value ([3]; single oral dose 800 mg) was 49.5±14.8 (11) cm H2O, the “P (opening): bladder pressure” value ([3]; single oral dose 800 mg) was 39.1±12.2 (7) cm H2O and the “P (voiding): bladder voiding pressure” value ([3]; single oral dose 800 mg) was 65.1±19.1 (11) cm H2O. For the same compound, the “Q (max)” value ([3]; single oral dose 800 mg) was 27.7±9.0 (8), the R.U. ([3]; single oral dose 800 mg) was 95.0±72.2 (9) and the “V (1st sense): bladder urine volume” value ([3]; single oral dose 800 mg) was 298±67.6 (11) ml. For the same compound, the “V (Urge): bladder urine volume” value ([3]; single oral dose 800 mg) was 381±61 (11) ml, the “V (max): maximum bladder urine volume” value ([3]; single oral dose 800 mg) was 436±165 (11) ml and the bladder capacity ([3]; versus control) was “no significant increase”. For the same compound, the “detrusor pressures in segments A and B (Figure 2 versus Figure 1)” value ([4]; one subject with normal detrusor, 400 mg dose, bladder volume 100 ml and 200 ml) was “considerably higher”, the “isometric detrusor pressure during the filling phase of the bladder” value ([4]; significant increase from control 36.1 + 26.9, dose not stated in the sentence (matches I (100), 400 mg, Table II)) was 63.0 + 27.1 cm 1120 and the “I (100): maximum bladder isometric pressure” value ([4]; single oral dose 400 mg) was 63.0±27.1 (13) cm H2O. The “I (100): maximum bladder isometric pressure” value ([4]; single oral dose 800 mg) was 74±34.6 (6) cm H2O, the “I (200): maximum bladder isometric pressure” value ([4]; single oral dose 400 mg) was 51.9±26.0 (14) cm H2O and the “I (200): maximum bladder isometric pressure” value ([4]; single oral dose 800 mg) was 65.0±37.8 (7) cm H2O. The “I (300): maximum bladder isometric pressure” value ([4]; single oral dose 400 mg) was 50.3±25.8 (12) cm H2O, the “I (300): maximum bladder isometric pressure” value ([4]; single oral dose 800 mg) was 63.4±26.2 (7) cm H2O and the “I (400): maximum bladder isometric pressure” value ([4]; single oral dose 400 mg) was 46.6±19.5 (10) cm H2O. For the same compound, the “I (400): maximum bladder isometric pressure” value ([4]; single oral dose 800 mg) was 50.0±27.5 (6) cm H2O, the “I (500): maximum bladder isometric pressure” value ([4]; single oral dose 400 mg) was 30.1±15.6 (8) cm H2O and the “I (500): maximum bladder isometric pressure” value ([4]; single oral dose 800 mg) was 34.0±14.4 (2) cm H2O. The “V (1st sense): bladder urine volume” value ([4]; single oral dose 400 mg) was 358±106 (18) ml, the “V (Max): maximum bladder urine volume” value ([4]; single oral dose 400 mg) was 544±151 (11) ml and the “V (Urge): bladder urine volume” value ([4]; single oral dose 400 mg) was 467±94 (18) ml. The “V (1st sense): bladder urine volume” value ([4]; single oral dose 800 mg) was 253.3±96.9 (6) ml, the “V (Max): maximum bladder urine volume” value ([4]; single oral dose 800 mg) was 425±82 (10) ml and the “V (Urge): bladder urine volume” value ([4]; single oral dose 800 mg) was 385±74.6 (7) ml. The “stability in water (hydrolysis)” value [5] was “slowly hydrolizes in water”.
